Results taken from patent US20230099031A1, “BIFUNCTIONAL AGENTS FOR PROTEIN RECRUITMENT AND/OR DEGRADATION” (Orionis Biosciences, Inc., priority 2019, published 2023).

Key:
Assay type in all cases: cell-based
ASS1 = molecular target: T1, ASS1 (Homo sapiens, UniProt P00966+Q96SW2); experiment: Recruitment Assay (MAPPIT-like): ASS1 recruitment, pSEL-CRBN+pMG1-ASS1; settings: recruitment of ASS1, protocol of Example 2; for EC50: read-out: EC50_ASS1
T1 construct: Full size proteins are fused for each of the target proteins tested; expressed in transfected cells; host or cells: HEK293T
Description: (§1) In this experimental set-up, cells are transfected with a construct encoding a CRBN-fusion protein and another one encoding a substrate-fusion protein. Test compound activity is assessed with increasing concentrations of test compounds (dose-response studies) to monitor the ability to promote CRBN-ligand-induced protein interaction.
(§2) Full size proteins are fused for each of the target proteins tested, except in the case of IKZF1 where isoform 7 is used, and BRD4, where isoform 3 is applied. For the study, the following construct combinations are used: IKZF1 recruitment: pSEL-CRBN+pMG1-IKZF1(isoform 7); ASS1 recruitment: pSEL-CRBN+pMG1-ASS1; SALL4 recruitment: pSEL-SALL4+pMG1-CRBN; DHFR recruitment: pCLG-DHFR+pMG1-CRBN; ESR1 recruitment: pSEL-CRBN+pMG1-ESR1; BRD4 recruitment: pSEL-CRBN+pMG1-BRD4(isoform 3). Cells are treated with erythropoietin (Epo; where pSEL-type receptor fusions constructs are used) or leptin (in the case pCLG-type receptor fusion constructs are applied) without or with the indicated dose of test compound at 24 hours after transfection. Luciferase activity is measured 24 hours after test compound treatment using the Luciferase Assay System kit (PROMEGA, Madison, Wis.) with an Ensight plate reader (PERKIN ELMER LIFE SCIENCES, Waltham, Mass.). Data points depict fold induction of the average luciferase activity of triplicate samples from Epo or leptin+test compound treated cells versus Epo or leptin only treated cells. Error bars represent standard deviations. Curves are fit using 4-parameter nonlinear regression in […] PRISM software.

CRBN = molecular target: T2, CRBN (Homo sapiens, UniProt Q96SW2); experiment: Competition Assay: MAPPIT-like, competition with trimethoprim-lenalidomide hybrid ligand for binding to CRBN in HEK293T cells; settings: protocol and reagents of Example 1; read-out: IC50 Competition
T2 construct: expressed in transfected cells; host or cells: HEK293T

SALL4 = molecular target: T3, SALL4 (Homo sapiens, UniProt Q96SW2+Q9UJQ4); experiment: Recruitment Assay (MAPPIT-like): SALL4 recruitment, pSEL-SALL4+pMG1-CRBN; settings: recruitment of SALL4, protocol of Example 2; read-out: EC50_SALL4
T3 construct: Full size proteins are fused for each of the target proteins tested; expressed in transfected cells; host or cells: HEK293T
Description: as §1, §2

| EC50 (ASS1) [µM] | IC50 (CRBN) [µM] | EC50 (SALL4) [µM] | EC50_ASS1 (M) (ASS1) | Structure (SMILES) |
| --- | --- | --- | --- | --- |
| 5.56 | 3.46 | 0.588 | – | Cc1cccc2c(=O)n(C3CCC(=O)NC3=O)nnc12 (centres unmarked) [Compound C35830, 3-(8-methyl-4-oxo-1,2,3-benzotriazin-3-yl)piperidine-2,6-dione] |
| – | 0.225 | 0.121 | >> | CCOC(=O)Nc1cccc2c1CN(C1CCC(=O)NC1=O)C2=O (centres unmarked) [Compound C22622, ethyl N-[2-(2,6-dioxo-3-piperidyl)-1-oxo-isoindolin-4-yl]carbamate] |
| – | 1.67 | 0.873 | >> | COCC(=O)Nc1cccc2c1CN(C1CCC(=O)NC1=O)C2=O (centres unmarked) [Compound C22564, N-[2-(2,6-dioxo-3-piperidyl)-1-oxo-isoindolin-4-yl]-2-methoxy-acetamide] |
| – | 2.29 | 0.517 | >> | O=C1CCC(n2nnc3ccccc3c2=O)C(=O)N1 (centres unmarked) [Compound C21223, 3-(4-oxo-1,2,3-benzotriazin-3-yl)piperidine-2,6-dione] |
| – | – | – | >> | O=C1CCC(N2Cc3ccc(O)cc3C2=O)C(=O)N1 (centres unmarked) [Compound C28928, 3-(6-hydroxy-1-oxo-isoindolin-2-yl)piperidine-2,6-dione] |
| – | 3.71 | 0.518 | >> | O=C(O)CNc1ccc2c(c1)CN(C1CCC(=O)NC1=O)C2=O (centres unmarked) [Compound C47995, 2-[[2-(2,6-dioxo-3-piperidyl)-1-oxo-isoindolin-5-yl]amino]acetic acid] |
| 9.42 | 2.21 | 0.387 | – | N#Cc1ccc(Nc2ccc3c(c2)CN(C2CCC(=O)NC2=O)C3=O)nn1 (centres unmarked) [Compound C80378, 6-[[2-(2,6-dioxo-3-piperidyl)-1-oxo-isoindolin-5-yl]amino]pyridazine-3-carbonitrile] |
| – | – | – | >> | O=C1CCC(N2C(=O)c3ccccc3C2=O)C(=O)N1 (centres unmarked) [THL, Thalidomide, reference compound] |
| – | 0.564 | 0.319 | >> | O=C1CCC(N2Cc3cc4c(cc3C2=O)OCO4)C(=O)N1 (centres unmarked) [Compound C68126, 3-(7-oxo-5H-[1,3]dioxolo[4,5-f]isoindol-6-yl)piperidine-2,6-dione] |
| – | 3.29 | 0.438 | >> | O=C1CCC(N2C(=O)c3ccccc3C2O)C(=O)N1 (centres unmarked) [Compound C89940, 3-(1-hydroxy-3-oxo-isoindolin-2-yl)piperidine-2,6-dione] |
| – | – | 1.25 | >> | Cc1nc2ccc(C#N)c(N)c2c(=O)n1C1CCC(=O)NC1=O (centres unmarked) [Compound C10001, 5-amino-3-(2,6-dioxo-3-piperidyl)-2-methyl-4-oxo-quinazoline-6-carbonitrile] |
| – | 0.163 | 0.152 | – | O=C1CCC(N2Cc3ccc(Nc4ncc5c(n4)COC5)cc3C2=O)C(=O)N1 (centres unmarked) [Compound C80391, 3-[6-(5,7-dihydrofuro[3,4-d]pyrimidin-2-ylamino)-1-oxo-isoindolin-2-yl]piperidine-2,6-dione] |
| – | 0.622 | 0.581 | >> | N#Cc1cccc2c1CN(C1CCC(=O)NC1=O)C2=O (centres unmarked) [Compound C48003, 2-(2,6-dioxo-3-piperidyl)-1-oxo-isoindoline-4-carbonitrile] |
| – | 0.173 | 0.122 | – | O=C1CCC(N2Cc3cc(-c4ccccc4)ccc3C2=O)C(=O)N1 (centres unmarked) [Compound C48016, 3-(1-oxo-5-phenyl-isoindolin-2-yl)piperidine-2,6-dione] |
| – | 1.3 | 1.14 | – | CN(C)CC(=O)Nc1cccc2c1CN(C1CCC(=O)NC1=O)C2=O (centres unmarked) [Compound C22586, 2-(dimethylamino)-N-[2-(2,6-dioxo-3-piperidyl)-1-oxo-isoindolin-4-yl]acetamide] |
| 1.45 | 0.486 | 0.232 | – | O=C1CCC(N2Cc3cc(NCCNC(=O)Nc4ccccc4)ccc3C2=O)C(=O)N1 (centres unmarked) [Compound C35751, 1-[2-[[2-(2,6-dioxo-3-piperidyl)-1-oxo-isoindolin-5-yl]amino]ethyl]-3-phenyl-urea] |
| – | 0.0291 | – | >> | Cc1ccc(NC(=O)NCc2cc(C)c3c(c2)CN(C2CCC(=O)NC2=O)C3=O)cc1Cl (centres unmarked) [Compound C58181, 1-(3-chloro-4-methyl-phenyl)-3-[[2-(2,6-dioxo-3-piperidyl)-7-methyl-1-oxo-isoindolin-5-yl]methyl]urea] |
| – | 0.737 | 0.278 | >> | CCOC(=O)NCCNc1ccc2c(c1)CN(C1CCC(=O)NC1=O)C2=O (centres unmarked) [Compound C35754, ethyl N-[2-[[2-(2,6-dioxo-3-piperidyl)-1-oxo-isoindolin-5-yl]amino]ethyl]carbamate] |
| – | 2.67 | 0.772 | – | Cc1ccc2nnn(C3CCC(=O)NC3=O)c(=O)c2c1 (centres unmarked) [Compound C16463, 3-(6-methyl-4-oxo-1,2,3-benzotriazin-3-yl)piperidine-2,6-dione] |
| – | 2.44 | 0.641 | >> | NC(=O)c1cccc(NC(=O)CNc2ccc3c(c2)CN(C2CCC(=O)NC2=O)C3=O)c1 (centres unmarked) [Compound C35811, 3-[[2-[[2-(2,6-dioxo-3-piperidyl)-1-oxo-isoindolin-5-yl]amino]acetyl]amino]benzamide] |
| – | 22.9 | 2.7 | – | CC(C)OC1c2ccccc2C(=O)N1C1CCC(=O)NC1=O (centres unmarked) [3-(1-isopropoxy-3-oxo-isoindolin-2-yl)piperidine-2,6-dione] |
| – | 0.892 | – | >> | O=C1CCC(N2Cc3cc(Nc4ncnc5ccccc45)ccc3C2=O)C(=O)N1 (centres unmarked) [Compound C80373, 3-[1-oxo-5-(quinazolin-4-ylamino)isoindolin-2-yl]piperidine-2,6-dione] |
| – | 2500 | 1.49 | – | O=C1CCC(N2C(=O)C3=C(C2=O)c2ccccc2CC3)C(=O)N1 (centres unmarked) [Compound C64340, 2-(2,6-dioxo-3-piperidyl)-4,5-dihydrobenzo[e]isoindole-1,3-dione] |
| – | 0.248 | 0.0882 | >> | O=C1CCC(N2Cc3cccc(F)c3C2=O)C(=O)N1 (centres unmarked) [Compound C23066, 3-(7-fluoro-1-oxo-isoindolin-2-yl)piperidine-2,6-dione] |
| 1.29 | 0.0415 | – | – | O=C1CCC(N2Cc3cc(Nc4ncccn4)ccc3C2=O)C(=O)N1 (centres unmarked) [Compound C80369, 3-[1-oxo-5-(pyrimidin-2-ylamino)isoindolin-2-yl]piperidine-2,6-dione] |
| – | 49.4 | 3.03 | – | CC(=O)NC1c2ccccc2C(=O)N1C1CCC(=O)NC1=O (centres unmarked) [Compound C33779, N-[2-(2,6-dioxo-3-piperidyl)-3-oxo-isoindolin-1-yl]acetamide] |
| – | 2.57 | 0.441 | >> | O=C1CCC(N2Cc3ncccc3C2=O)C(=O)N1 (centres unmarked) [Compound C47959, 3-(5-oxo-7H-pyrrolo[3,4-b]pyridin-6-yl)piperidine-2,6-dione] |
| – | 0.228 | 0.395 | – | O=C1CCC(N2Cc3ccc(-c4ccccc4)cc3C2=O)C(=O)N1 (centres unmarked) [Compound C48018, 3-(1-oxo-6-phenyl-isoindolin-2-yl)piperidine-2,6-dione] |
| – | 1.43 | 0.186 | >> | CC(=O)Nc1ccc2c(c1)CN(C1CCC(=O)NC1=O)C2=O (centres unmarked) [Compound C29361, N-[2-(2,6-dioxo-3-piperidyl)-1-oxo-isoindolin-5-yl]acetamide] |
